Measured values as given in patent publication US12528802B2, “Heterocyclic compound” (Takeda Pharmaceutical Company Limited, priority 2019, dated 2026).

Biological target: T1, glucosylceramide synthase (Homo sapiens, UniProt Q16739)
T1 construct: made in house; host or cells: Expi293F cells (transient expression, pcDNA3.3-TOPO vector); microsome fraction used as enzyme source
T1 sequence (Q16739 1-394): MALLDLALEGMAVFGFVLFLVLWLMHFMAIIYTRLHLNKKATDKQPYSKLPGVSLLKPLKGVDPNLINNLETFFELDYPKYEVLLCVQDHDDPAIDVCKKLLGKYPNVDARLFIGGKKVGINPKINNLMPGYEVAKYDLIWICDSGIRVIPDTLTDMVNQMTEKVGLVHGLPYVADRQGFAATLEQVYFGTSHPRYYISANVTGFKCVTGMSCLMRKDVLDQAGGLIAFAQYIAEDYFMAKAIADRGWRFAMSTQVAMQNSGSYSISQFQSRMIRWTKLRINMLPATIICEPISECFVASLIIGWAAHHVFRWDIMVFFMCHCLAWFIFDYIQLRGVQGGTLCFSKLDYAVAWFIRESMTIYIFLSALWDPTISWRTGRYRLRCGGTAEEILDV
Assay: Glucosylceramide synthase (GCS) enzyme assay, microsome fraction, C8 glucosylceramide quantified by Rapidfire MS/MS
Type: biochemical
Settings: test compound 10 μM; 1.7 μM UDP-glucose, 3 μM C8 ceramide; room temperature 60 min
Description: Glucosylceramide Synthase (GCS) Assay
In enzyme assay, a microsome fraction obtained by transient expression by Expi293F™ cells (catalog number: A14527, Thermo Fisher Scientific) was used as a glucosylceramide synthase source. Liposomal C8 ceramide and UDP-glucose were used as substrates. […] After the enzymatic reaction, the analysis was performed with Rapidfire MS/MS (API-4000™, SCIEX), and C8 glucosylceramide was quantified to evaluate the inhibitory activity of the test compound against glucosylceramide synthase activity.
PcDNA3.3TOPO vector (catalog number: K830001, Thermo Fisher Scientific) into which the human GCS gene was inserted was introduced into Expi293F™ Cells (catalog number: A14527, Thermo Fisher Scientific) by using ExpiFectamine™ 293 Transfection Kit (catalog number: A14525, Thermo Fisher Scientific). The cultured cells were dissolved in D-PBS (catalog number: 048-29805, Fuji Film Wako Pure Chemical Industries, Ltd.) containing 1 mM PMSF, and the solution was allowed to stand on ice for 30 minutes, and then subjected to cell disruption (homogenized). The disruption solution was centrifuged at 10,000×g for 20 minutes at 4° C., and the obtained supernatant was centrifuged at 142,400×g for 60 minutes at 4° C. The obtained precipitate was resuspended in a D-PBS solution containing 1 mM PMSF, and homogenized again to prepare as a microsome fraction. Protein quantification was performed by the CBB method.
A 1 mM compound solution prepared by dissolving the test compound in DMSO was added to a 384-well plate by 100 nL so that the final concentration of the test compound was 10 μM. Next, a substrate solution consisting of 3.4 μM UDP-glucose and 6 μM C8 ceramide was added by 5 μL, followed by an enzyme solution consisting of a 25 μg/mL microsome fraction by 5 μL. C8 ceramide was prepared from liposomes composed of 15 mol % C8 ceramide and 85 mol % dioleoyl phosphatidylcholine (1,2-dioleoyl-sn-glycero-3-phosphocholine: DOPC). The enzymatic reaction was carried out in a solution consisting of 20 mM tris-hydrochloric acid buffer (pH 7.5), 0.01% Tween 20, 0.01% bovine serum albumin and 1 mM dithiothreitol at room temperature for 60 min. Then, a solution consisting of 75% isopropanol and 1% formic acid containing 0.25 μM N-Octadecanoyl-D35-psichosine (catalog number: 1914, Matreya) as an internal standard substance was added by 60 μL to stop the enzymatic reaction. 5 μL of the centrifugal supernatant of the obtained reaction product was analyzed by Rapidfire MS/MS (Agilent Technologies) using API-4000™ (SCIEX), and the C8 glucosylceramide was quantified to evaluate the inhibitory activity of the test compound against the glucosylceramide synthase activity. The inhibitory activity of the test compound was evaluated when the C8 glucosylceramide level in the enzyme-free solution was considered as 100% inhibitory and the enzyme activity of the DMSO group in the absence of the compound was considered as 0% inhibitory.

GCS enzyme inhibitory rate at 10 μM (%) (% of control) | Compound
97% | O=C1c2ccnc(-c3ccc(F)cc3OCC(F)(F)F)c2CN1c1ccc(C2(O)CCOC2)c(F)c1 (racemic) [Example 235, rac-2-[3-fluoro-4-(3-hydroxyoxolan-3-yl)phenyl]-4-[4-fluoro-2-(2,2,2-trifluoroethoxy)phenyl]-2,3-dihydro-1H-pyrrolo[3,4-c]pyridin-1-one]
95% | O=C1c2ccnc(-c3ccc(F)cc3OCC(F)(F)F)c2CN1c1ccc(C2(O)CCOC2)c(F)c1 (racemic) [Example 238, rac-2-[3-fluoro-4-(3-hydroxyoxolan-3-yl)phenyl]-4-[4-fluoro-2-(2,2,2-trifluoroethoxy)phenyl]-2,3-dihydro-1H-pyrrolo[3,4-c]pyridin-1-one]

Same assay, conditions: test compound 10 μM; 1.7 μM UDP-glucose, 3 μM C8 ceramide; room temperature 60 min; read-out: GCS enzyme inhibitory rate at 10 μM (%) (% of control)

Compound | inhibition at 10 µM
O=C1c2ccnc(-c3ccc(F)cc3OCC(F)(F)F)c2CN1c1ccc(C2(O)CCOC2)c(F)c1 (racemic) [Example 223, rac-2-[3-fluoro-4-(3-hydroxyoxolan-3-yl)phenyl]-4-[4-fluoro-2-(2,2,2-trifluoroethoxy)phenyl]-2,3-dihydro-1H-pyrrolo[3,4-c]pyridin-1-one] | 96%
CC(c1ccc(N2Cc3c(ccnc3-c3ccc(F)cc3OCC(F)(F)F)C2=O)cc1)N1CCCC1=O (racemic) [Example 232, rac-4-[4-fluoro-2-(2,2,2-trifluoroethoxy)phenyl]-2-{4-[1-(2-oxopyrrolidin-1-yl)ethyl]phenyl}-2,3-dihydro-1H-pyrrolo[3,4-c]pyridin-1-one] | 82%
O=C1c2ccnc(-c3ccc(F)cc3OCC(F)(F)F)c2CN1c1ccc(C(O)C(F)(F)F)cc1 (racemic) [Example 251, rac-4-[4-fluoro-2-(2,2,2-trifluoroethoxy)phenyl]-2-[4-(2,2,2-trifluoro-1-hydroxyethyl)phenyl]-2,3-dihydro-1H-pyrrolo[3,4-c]pyridin-1-one] | 96%
O=C1c2ccnc(-c3ccc(F)cc3OCC(F)(F)F)c2CN1c1ccc(C2(O)CCOC2)cn1 (racemic) [Example 256, rac-4-[4-fluoro-2-(2,2,2-trifluoroethoxy)phenyl]-2-[5-(3-hydroxyoxolan-3-yl)pyridin-2-yl]-2,3-dihydro-1H-pyrrolo[3,4-c]pyridin-1-one] | 97%
CC(O)c1ccc(N2Cc3c(ccnc3-c3ccc(F)cc3OCC(F)(F)F)C2=O)cc1 (racemic) [Example 282, rac-4-[4-fluoro-2-(2,2,2-trifluoroethoxy)phenyl]-2-[4-(1-hydroxyethyl)phenyl]-2,3-dihydro-1H-pyrrolo[3,4-c] pyridin-1-one] | 99%
CC(O)c1ccc(N2Cc3c(ccnc3-c3ccc(F)cc3OCC(F)(F)F)C2=O)cc1F (racemic) [Example 292, rac-2-[3-fluoro-4-(1-hydroxyethyl)phenyl]-4-[4-fluoro-2-(2,2,2-trifluoroethoxy)phenyl]-2,3-dihydro-1H-pyrrolo [3,4-c]pyridin-1-one] | 99%
O=C1c2ccnc(-c3ccc(F)cc3OCC(F)(F)F)c2CN1c1ccc(C(O)C(F)(F)F)c(F)c1 (racemic) [Example 293, rac-4-[4-fluoro-2-(2,2,2-trifluoroethoxy)phenyl]-2-[3-fluoro-4-(2,2,2-trifluoro-1-hydroxyethyl)phenyl]-2,3-dihydro-1H-pyrrolo [3,4-c]pyridin-1-one] | 88%
O=C1c2ccnc(-c3ccccc3OCC(F)(F)F)c2CN1c1ccc(C(O)C2CC2)nc1 (racemic) [Example 317, rac-2-{6-[cyclopropyl(hydroxy)methyl]pyridin-3-yl}-4-[2-(2,2,2-trifluoroethoxy)phenyl]-2,3-dihydro-1H-pyrrolo[3,4-c]pyridin-1-one] | 99%
COC(=O)c1ccc(N2CC3=C(OC(C)CN=C3c3ccccc3OCC(F)(F)F)C2=O)cc1 (racemic) [Example 332, rac-methyl 4-{2-methyl-8-oxo-5-[2-(2,2,2-trifluoroethoxy)phenyl]-2,3,6,8-tetrahydro-7H-pyrrolo [3,4-f][1,4]oxazepin-7-yl}benzoate] | 96%
CC(O)c1cc2c(c(-c3ccccc3OCC(F)(F)F)n1)CN(c1ccc(OCC(F)(F)F)cc1)C2=O (racemic) [Example 341, rac-6-(1-hydroxyethyl)-4-[2-(2,2,2-trifluoroethoxy)phenyl]-2-[4-(2,2,2-trifluoroethoxy)phenyl]-2,3-dihydro-1H-pyrrolo[3,4-c]pyridin-1-one] | 100%

The remaining lines, values ahead:

inhibition at 10 µM | Compound
98% | O=C1c2ccnc(-c3ccccc3OCC(F)(F)F)c2CN1c1ccc(C(O)C(F)(F)F)nc1 (racemic) [Example 249, rac-4-[2-(2,2,2-trifluoroethoxy)phenyl]-2-[6-(2,2,2-trifluoro-1-hydroxyethyl)pyridin-3-yl]-2,3-dihydro-1H-pyrrolo[3,4-c]pyridin-1-one]
99% | O=C1c2ccnc(-c3ccc(F)cc3OCC(F)(F)F)c2CN1c1ccc(C(O)C(F)F)cc1 (racemic) [Example 250, rac-2-[4-(2,2-difluoro-1-hydroxyethyl)phenyl]-4-[4-fluoro-2-(2,2,2-trifluoroethoxy)phenyl]-2,3-dihydro-1H-pyrrolo[3,4-c]pyridin-1-one]
99% | CC(O)c1ccc(N2Cc3c(ccnc3-c3ccccc3OCC(F)(F)F)C2=O)cc1 (racemic) [Example 280, rac-2-[4-(1-hydroxyethyl)phenyl]-4-[2-(2,2,2-trifluoroethoxy)phenyl]-2,3-dihydro-1H-pyrrolo [3,4-c]pyridin-1-one]
100% | CC(O)(c1ccc(N2Cc3c(ccnc3-c3ccccc3OCC(F)(F)F)C2=O)cc1)C(F)(F)F (racemic) [Example 295, rac-4-[2-(2,2,2-trifluoroethoxy)phenyl]-2-[4-(1,1,1-trifluoro-2-hydroxypropan-2-yl)phenyl]-2,3-dihydro-1H-pyrrolo[3,4-c]pyridin-1-one]
100% | CC(O)(c1ccc(N2Cc3c(ccnc3-c3ccc(F)cc3OCC(F)(F)F)C2=O)cc1)C(F)F (racemic) [Example 296, rac-2-[4-(1,1-difluoro-2-hydroxypropan-2-yl)phenyl]-4-[4-fluoro-2-(2,2,2-trifluoroethoxy)phenyl]-2,3-dihydro-1H-pyrrolo[3,4-c]pyridin-1-one]
100% | CC(O)(c1ccc(N2Cc3c(ccnc3-c3ccccc3OCC(F)(F)F)C2=O)cc1)C(F)F (racemic) [Example 308, rac-2-[4-(1,1-difluoro-2-hydroxypropan-2-yl)phenyl]-4-[2-(2,2,2-trifluoroethoxy)phenyl]-2,3-dihydro-1H-pyrrolo[3,4-c]pyridin-1-one]
99% | CC(O)(c1ccc(N2Cc3c(ccnc3-c3ccc(F)cc3OCC(F)(F)F)C2=O)cc1)C(F)(F)F (racemic) [Example 312, rac-4-[4-fluoro-2-(2,2,2-trifluoroethoxy)phenyl]-2-[4-(1,1,1-trifluoro-2-hydroxypropan-2-yl)phenyl]-2,3-dihydro-1H-pyrrolo [3,4-c]pyridin-1-one]
100% | O=C1c2ccnc(-c3ccccc3OCC(F)(F)F)c2CN1c1ccc(C(O)C2CC2)cc1 (racemic) [Example 329, rac-2-{4-[cyclopropyl(hydroxy)methyl]phenyl}-4-[2-(2,2,2-trifluoroethoxy)phenyl]-2,3-dihydro-1H-pyrrolo[3,4-c]pyridin-1-one]
